Key:
[1] = system: collagen induced arthritis; assay: Collagen induced arthritis in B10RIII mice, clinical arthritis score (EndoTAG-1); format: in vivo; details: endpoint day 11; i.v. every second day; paclitaxel 2.56 mg/kg, Enbrel 10 mg/kg
[2] = system: collagen induced arthritis; assay: Collagen induced arthritis in DBA/1 mice, clinical arthritis score (EndoMTX); format: in vivo; details: day 34; i.v. 3 times a week from day 15, 5.0 mg/kg methotrexate where loaded
Description: Male DBA/1 mice with an age of ten weeks at arrival were purchased from Taconic Europe and housed in isolated cages under save environmental conditions (Five mice per cage, 22° C., 30-70% humidity and 12 h light/dark cycle) with food and water ad libitum. Experimental design was reviewed and approved by local government.
Mice were assigned to the experimental groups acclimated at least 7 days before induction of collagen induced arthritis. Animals were anesthetized intraperitoneally (i.p.) with a mixture of Xylazin and Ketamin. Each animal obtained 4 ml/kg as application volume. 0.5 ml Rompun (20 mg/ml Xylazin) and 1 ml Ketamin (100 mg/ml Ketamin) were mixed (1:2) and diluted 1:4 in 4.5 ml 0.9% NaCl. 2. For the Collagen Type II-CFA emulsions, Collagen (bovine, 4 mg/ml) was mixed 1:1 with CFA by repeated passage through a flexible tube connecting two 1-ml syringes (syringe-syringe-method). This mixture was kept on ice and will be applied within 4 hours after preparation. For the immunization 100 μl Collagen/CFA-emulsion was injected subcutaneously at the base of the tail. The injection of Collagen/CFA-emulsion was done once on day 0 and once as a booster immunization on day 21. After two weeks the animals were controlled for symptoms of collagen induced arthritis (CIA) by joint scoring three times a week. […]

| Molecule | order of antiarthritic efficacy (mean clinical arthritis score) [1] | order of antiarthritic efficacy (mean clinical arthritis score) [2] |
| --- | --- | --- |
| Enbrel | Enbrel>EndoTAG-1>EndoTAG-1 placebo and Taxol® | – |
| CN(Cc1cnc2nc(N)nc(N)c2n1)c1ccc(C(=O)N[C@@H](CCC(=O)O)C(=O)O)cc1 [MTX, N-[4-[[(2,4-diamino-6-pteridinyl)methyl]methylamino]benzoyl]-L-glutamic acid] | – | EndoMTX>EndoMTX placebo>MTX |

Source: patent US20090232731A1, “Cationic Liposomal Preparations for the Treatment of Rheumatoid Arthritis” (priority 2006, published 2009)
